Test results reported in patent US12577242B2, “Pyrrolopyridine and imidazopyridine antiviral compounds” (KATHOLIEKE UNIVERSITEIT LEUVEN, priority 2020, dated 2026).

Columns and labels:
BVDV type 2 strain 1373 = settings: 5 mg/kg i.v. 2x daily; for Animals showing signs of dehydration / Samples virus isolation positive for BVDV in total / Adverse side effects on serial complete blood cell counts or serum chemistry panels / Period in which leukopenia (<5000 leukocytes/μL) was seen / Adverse drug reactions on daily clinical monitoring / Clinical scores compared to calves receiving diluent only: 10 days; for Buffy coat samples virus isolation positive: Days 6-10, 20 samples per group; for Samples virus isolation positive for BVDV in total: all sample types and time points; for Nasal swab samples virus isolation positive: by Day 12, 28 samples per group; for Adverse side effects on serial complete blood cell counts or serum chemistry panels / Period in which leukopenia (<5000 leukocytes/μL) was seen / Adverse drug reactions on daily clinical monitoring: calves; for Adverse drug reactions on daily clinical monitoring: Day 0 to Day 28; for Clinical scores compared to calves receiving diluent only: composite of dehydration, appearance, appetite, diarrhea
[1] = test system: Bovine viral diarrhea (BVD) virus; assay: Anti-BVDV CPE inhibition assay in MDBK cells; settings: for SI (selectivity index, ratio of CC50 and EC50): CC50/EC50, MDBK cells, BVD virus
[2] = Cytotoxicity in MDBK cells (no BVD virus added); settings: bovine, MDBK cells (Madin-Darby bovine kidney), no virus added
[3] = test system: classical swine fever virus (CSFV) strain Alfort 187; assay: microbe, parasite or virus in culture; type: cell-based; settings: PK-15, in Sus scrofa, 48 h
[4] = test system: MDBK cells (Madin-Darby bovine kidney); assay: Cytotoxicity in MDBK cells (no BVD virus added); settings: MDBK cells, no virus, 50% toxic effects
[5] = Bovine viral diarrhea virus isolates and strains, MDBK, in Bos taurus, 96 h

| SMILES | Animals showing signs of dehydration (BVDV type 2 strain 1373) | Buffy coat samples virus isolation positive (BVDV type 2 strain 1373) [%] | Samples virus isolation positive for BVDV in total (BVDV type 2 strain 1373) [samples] | Nasal swab samples virus isolation positive (BVDV type 2 strain 1373) [%] | Adverse side effects on serial complete blood cell counts or serum chemistry panels (BVDV type 2 strain 1373) | Period in which leukopenia (<5000 leukocytes/μL) was seen (BVDV type 2 strain 1373) [days] | Adverse drug reactions on daily clinical monitoring (BVDV type 2 strain 1373) | Clinical scores compared to calves receiving diluent only (BVDV type 2 strain 1373) | EC50 [1, 5] [µM] | SI (selectivity index, ratio of CC50 and EC50) [1] | CC50 at 4 days [2] [µM] | EC50 [3] [µM] | EC50 ([1]; BVD virus approx. 100 TCID50, MDBK cells, four days, 50% inhibition of CPE) [µM] | CC50 [4] [µM] |
| --- | --- | --- | --- | --- | --- | --- | --- | --- | --- | --- | --- | --- | --- | --- |
| Cc1c(-c2nc3ccn(Cc4cc(-c5cc(F)ccc5F)no4)cc-3n2)cnn1C [CPD-7, 3-(2,5-difluorophenyl)-5-((2-(1,5-dimethyl-1H-pyrazol-4-yl)-5H-imidazo[4,5-c]pyridin-5-yl)methyl)isoxazole] | None | 50 | 28 | 29 | No evidence of adverse side effects | 6 to 12 | No signs of adverse drug reactions were observed | attenuated clinical scores | 0.053 ± 0.025 | 4000 | 212 | 1.3 ± 0.5 |  |  |
| Cc1ccc2nc(Cn3ccc4nc(-c5cn(C)nc5C)nc-4c3)sc2c1 [CPD-10, 2-((2-(1,3-dimethyl-1H-pyrazol-4-yl)-5H-imidazo[4,5-c]pyridin-5-yl)methyl)-6-methylbenzo[d]thiazole] | None | 55 | 32 | 43 | No evidence of adverse side effects | 6 to 8 | No signs of adverse drug reactions were observed | attenuated clinical scores | 0.08 ± 0.032 | 2888 | 231 | 4.3 ± 1.9 |  |  |
| OCc1ccccc1-c1cc2ccn(Cn3nnc4ccccc43)cc-2n1 [Compound V, [2-(6-((1H-Benzotriazol)-1-yl)methyl-6H-pyrrolo[2,3-c]pyridin-2-yl)-phenyl]-methanol] |  |  |  |  |  |  |  |  |  |  |  |  | 0.081 ± 0.001 | > 50 |
